Measurements published in patent US20220089568A1 (Janssen Biotech, Inc., priority 2019, published 2022).

Experiments:
human DHODH = target: T1, human DHODH (Homo sapiens, UniProt Q02127); assay: DHODH Enzymatic Assay; assay type: biochemical; conditions: purified human DHODH; DCIP absorbance, end-point mode
T1 construct: purchased Proteros PR-0044
Protocol: To detect DHODH enzyme activities, dichloroindophenol (DCIP) is added as the final electron acceptor in the assay. DCIP can accept electrons from the reduced coenzyme Q generated in the assay, or from dihydroorotate (DHO) via FMN by binding presumably to the ubiquinone pocket. […] The assay buffer contained […], pH 7.5, 150 mM NaCl, 0.5 mM EDTA, and 0.1% Triton X-100 in MilliQ water. Substrate consisting of 20 mM DHO, 5 mM CoQ6, and 1 mM DCIP in assay buffer, initiates the reaction. […] Absorbance measurements were obtained using the BMG Phera Star plate-reading spectrophotomer. Purified human DHODH was purchased from Proteros (cat. No. PR-0044). Chemicals were purchased from Sigma-Aldrich, Teknova, and Avanti Polar Lipids. Liquid handling was performed using Labcyte Echo and Formulatrix Tempest.

MOLM-13 cells = assay: MOLM-13 Cellular Assay; assay type: cell-based; conditions: Homo sapiens, 72 hours exposure, cell viability by CellTiter-Glo
Protocol: The day prior to assay set-up, cells were pelleted, resuspended in fresh media, counted, and cells were plated at 0.4×10^6 cell/mL in a T150 flask. […] Cells were exposed to different concentrations of test compounds at 37° C., 5% CO2 for 72 hours immediately after seeding.

T1 sequence (Q02127 whole entry): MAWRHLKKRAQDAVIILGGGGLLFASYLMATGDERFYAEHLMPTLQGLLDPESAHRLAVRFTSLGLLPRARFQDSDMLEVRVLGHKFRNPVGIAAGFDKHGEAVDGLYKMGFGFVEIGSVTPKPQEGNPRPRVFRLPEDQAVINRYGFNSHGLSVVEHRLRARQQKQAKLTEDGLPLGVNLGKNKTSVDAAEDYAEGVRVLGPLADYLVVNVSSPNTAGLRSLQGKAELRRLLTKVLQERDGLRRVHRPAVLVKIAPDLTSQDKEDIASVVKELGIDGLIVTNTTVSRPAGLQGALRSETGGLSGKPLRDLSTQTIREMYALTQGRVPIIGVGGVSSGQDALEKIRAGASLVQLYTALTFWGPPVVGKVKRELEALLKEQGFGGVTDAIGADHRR

| SMILES | EC50 (human DHODH) [µM] | EC50 (MOLM-13 cells) [µM] |
| --- | --- | --- |
| CCn1c(CO)nn(-c2nc(O[C@@H](C)C(F)(F)F)c(C(=O)Nc3c(OC)ccnc3Cl)cc2F)c1=O [Example 44, (S)-N-(2-Chloro-4-methoxypyridin-3-yl)-6-(4-ethyl-3-(hydroxymethyl)-5-oxo-4,5-dihydro-1H-1,2,4-triazol-1-yl)-5-fluoro-2-((1,1,1-trifluoropropan-2-yl)oxy)nicotinamide] | 0.0039 | 0.0107 |
| CCn1c(CO)nn(-c2nc(O[C@@H](C)C(F)(F)F)c(C(=O)Nc3conc3C)cc2F)c1=O [Example 45, (S)-6-(4-Ethyl-3-(hydroxymethyl)-5-oxo-4,5-dihydro-1H-1,2,4-triazol-1-yl)-5-fluoro-N-(3-methylisoxazol-4-yl)-2-((1,1,1-trifluoropropan-2-yl)oxy)nicotinamide] | 0.142 | > 0.1 |
| CCn1c(CO)nn(-c2nc(O[C@@H](C)C(F)(F)F)c(C(=O)Nc3c(C)noc3C)cc2F)c1=O [Example 46, (S)-N-(3,5-Dimethylisoxazol-4-yl)-6-(4-ethyl-3-(hydroxymethyl)-5-oxo-4,5-dihydro-1H-1,2,4-triazol-1-yl)-5-fluoro-2-((1,1,1-trifluoropropan-2-yl)oxy)nicotinamide] | 0.0127 | 0.0325 |
| CCn1c(CO)nn(-c2nc(O[C@@H](C)C(F)(F)F)c(C(=O)Nc3cc(OC)ccc3F)cc2F)c1=O [Example 47, (S)-6-(4-Ethyl-3-(hydroxymethyl)-5-oxo-4,5-dihydro-1H-1,2,4-triazol-1-yl)-5-fluoro-N-(2-fluoro-5-methoxyphenyl)-2-((1,1,1-trifluoropropan-2-yl)oxy)nicotinamide] | 0.0135 | 0.0069 |
| CCn1c(CO)nn(-c2nc(O[C@@H](C)C(F)(F)F)c(C(=O)Nc3cc(C)ccc3Cl)cc2F)c1=O [Example 48, (S)-N-(2-Chloro-5-methylphenyl)-6-(4-ethyl-3-(hydroxymethyl)-5-oxo-4,5-dihydro-1H-1,2,4-triazol-1-yl)-5-fluoro-2-((1,1,1-trifluoropropan-2-yl)oxy)nicotinamide] | 0.000761 | 0.000553 |
| CCn1c(CO)nn(-c2nc(O[C@@H](C)C(F)(F)F)c(C(=O)Nc3c(C)n[nH]c3C)cc2F)c1=O [Example 49, (S)-N-(3,5-Dimethyl-1H-pyrazol-4-yl)-6-(4-ethyl-3-(hydroxymethyl)-5-oxo-4,5-dihydro-1H-1,2,4-triazol-1-yl)-5-fluoro-2-((1,1,1-trifluoropropan-2-yl)oxy)nicotinamide] | 0.0064 | 0.0211 |
| CCn1c(CO)nn(-c2nc(O[C@@H](C)C(F)(F)F)c(C(=O)Nc3cnc(OC)cc3Cl)cc2F)c1=O [Example 50, (S)-N-(4-Chloro-6-methoxypyridin-3-yl)-6-(4-ethyl-3-(hydroxymethyl)-5-oxo-4,5-dihydro-1H-1,2,4-triazol-1-yl)-5-fluoro-2-((1,1,1-trifluoropropan-2-yl)oxy)nicotinamide] | 0.000852 | 0.00183 |
| CCn1c(CO)nn(-c2nc(O[C@@H](C)C(F)(F)F)c(C(=O)Nc3cc(C)cnc3C)cc2F)c1=O [Example 51, (S)-N-(2,5-Dimethylpyridin-3-yl)-6-(4-ethyl-3-(hydroxymethyl)-5-oxo-4,5-dihydro-1H-1,2,4-triazol-1-yl)-5-fluoro-2-((1,1,1-trifluoropropan-2-yl)oxy)nicotinamide] | 0.0064 | 0.0524 |
| CCn1c(CO)nn(-c2nc(O[C@@H](C)C(F)(F)F)c(C(=O)Nc3cc(Cl)cnc3C)cc2F)c1=O [Example 52] | 0.013 | 0.0689 |
| CCn1c(CO)nn(-c2nc(O[C@@H](C)C(F)(F)F)c(C(=O)Nc3c(C)ccn(C)c3=O)cc2F)c1=O [Example 53, N-(1,4-Dimethyl-2-oxo-2,3-dihydro-1l4-pyridin-3-yl)-6-(4-ethyl-3-(hydroxymethyl)-5-oxo-4,5-dihydro-1H-1,2,4-triazol-1-yl)-5-fluoro-2-(((S)-1,1,1-trifluoropropan-2-yl)oxy)nicotinamide] | 0.144 | > 0.1 |
| CCn1c(CO)nn(-c2nc(O[C@@H](C)C(F)(F)F)c(C(=O)Nc3ncccc3Cl)cc2F)c1=O [Example 54, (S)-N-(3-Chloropyridin-2-yl)-6-(4-ethyl-3-(hydroxymethyl)-5-oxo-4,5-dihydro-1H-1,2,4-triazol-1-yl)-5-fluoro-2-((1,1,1-trifluoropropan-2-yl)oxy)nicotinamide] | 0.0052 | 0.0069 |
| CCn1c(CO)nn(-c2nc(O[C@@H](C)C(F)(F)F)c(C(=O)Nc3c(C)nn(C)c3C)cc2F)c1=O [Example 55, (S)-6-(4-Ethyl-3-(hydroxymethyl)-5-oxo-4,5-dihydro-1H-1,2,4-triazol-1-yl)-5-fluoro-2-((1,1,1-trifluoropropan-2-yl)oxy)-N-(1,3,5-trimethyl-1H-pyrazol-4-yl)nicotinamide] | 0.0173 | > 0.1 |
| CCn1c(CO)nn(-c2nc(O[C@@H](C)C(F)(F)F)c(C(=O)Nc3nc(OC)ccc3F)cc2F)c1=O [Example 56, (S)-6-(4-Ethyl-3-(hydroxymethyl)-5-oxo-4,5-dihydro-1H-1,2,4-triazol-1-yl)-5-fluoro-N-(3-fluoro-6-methoxypyridin-2-yl)-2-((1,1,1-trifluoropropan-2-yl)oxy)nicotinamide] | 0.0046 | 0.0052 |
| CCn1c(CO)nn(-c2nc(O[C@@H](C)C(F)(F)F)c(C(=O)Nc3c[nH]nc3C)cc2F)c1=O [Example 57, (S)-6-(4-Ethyl-3-(hydroxymethyl)-5-oxo-4,5-dihydro-1H-1,2,4-triazol-1-yl)-5-fluoro-N-(3-methyl-1H-pyrazol-4-yl)-2-((1,1,1-trifluoropropan-2-yl)oxy)nicotinamide] | 0.0017 | 0.0202 |
| CCn1c(CO)nn(-c2nc(O[C@@H](C)C(F)(F)F)c(C(=O)Nc3c[nH]nc3OC)cc2F)c1=O [Example 58, (S)-6-(4-Ethyl-3-(hydroxymethyl)-5-oxo-4,5-dihydro-1H-1,2,4-triazol-1-yl)-5-fluoro-N-(3-methoxy-1H-pyrazol-4-yl)-2-((1,1,1-trifluoropropan-2-yl)oxy)nicotinamide] | 0.0058 | 0.0232 |
| CCn1c(CO)nn(-c2nc(O[C@@H](C)C(F)(F)F)c(C(=O)Nc3cc(C(C)C)nn3C)cc2F)c1=O [Example 59, (S)-6-(4-Ethyl-3-(hydroxymethyl)-5-oxo-4,5-dihydro-1H-1,2,4-triazol-1-yl)-5-fluoro-N-(3-isopropyl-1-methyl-1H-pyrazol-5-yl)-2-((1,1,1-trifluoropropan-2-yl)oxy)nicotinamide] | 0.0981 | > 0.1 |
| CCn1c(CO)nn(-c2nc(O[C@@H](C)C(F)(F)F)c(C(=O)Nc3ncnc(C)c3Cl)cc2F)c1=O [Example 60, (S)-N-(5-Chloro-6-methylpyrimidin-4-yl)-6-(4-ethyl-3-(hydroxymethyl)-5-oxo-4,5-dihydro-1H-1,2,4-triazol-1-yl)-5-fluoro-2-((1,1,1-trifluoropropan-2-yl)oxy)nicotinamide] | 0.254 | > 0.1 |
| CCn1c(CO)nn(-c2nc(O[C@@H](C)C(F)(F)F)c(C(=O)Nc3cn(C)nc3COC)cc2F)c1=O [Example 61, (S)-6-(4-Ethyl-3-(hydroxymethyl)-5-oxo-4,5-dihydro-1H-1,2,4-triazol-1-yl)-5-fluoro-N-(3-(methoxymethyl)-1-methyl-1H-pyrazol-4-yl)-2-((1,1,1-trifluoropropan-2-yl)oxy)nicotinamide] | 0.365 | > 0.1 |
| CCn1c(CO)nn(-c2nc(O[C@@H](C)C(F)(F)F)c(C(=O)Nc3c[nH]nc3C3CC3)cc2F)c1=O [Example 62, (S)-N-(3-Cyclopropyl-1H-pyrazol-4-yl)-6-(4-ethyl-3-(hydroxymethyl)-5-oxo-4,5-dihydro-1H-1,2,4-triazol-1-yl)-5-fluoro-2-((1,1,1-trifluoropropan-2-yl)oxy)nicotinamide] | 0.0027 | 0.0085 |
| CCn1c(CO)nn(-c2nc(O[C@@H](C)C(F)(F)F)c(C(=O)Nc3cnn(CCOC)c3)cc2F)c1=O [Example 63, (S)-6-(4-Ethyl-3-(hydroxymethyl)-5-oxo-4,5-dihydro-1H-1,2,4-triazol-1-yl)-5-fluoro-N-(1-(2-methoxyethyl)-1H-pyrazol-4-yl)-2-((1,1,1-trifluoropropan-2-yl)oxy)nicotinamide] | 0.865 | > 0.1 |
| CCn1c(CO)nn(-c2nc(O[C@@H](C)C(F)(F)F)c(C(=O)Nc3c(Cl)ccc(=O)n3C)cc2F)c1=O [Example 64, (S)-N-(3-Chloro-1-methyl-6-oxo-1,6-dihydropyridin-2-yl)-6-(4-ethyl-3-(hydroxymethyl)-5-oxo-4,5-dihydro-1H-1,2,4-triazol-1-yl)-5-fluoro-2-((1,1,1-trifluoropropan-2-yl)oxy)nicotinamide] | 0.101 | > 0.1 |
| CCn1c(CO)nn(-c2nc(O[C@@H](C)C(F)(F)F)c(C(=O)Nc3cc(OC)ncc3F)cc2F)c1=O [Example 65, (S)-6-(4-Ethyl-3-(hydroxymethyl)-5-oxo-4,5-dihydro-1H-1,2,4-triazol-1-yl)-5-fluoro-N-(5-fluoro-2-methoxypyridin-4-yl)-2-((1,1,1-trifluoropropan-2-yl)oxy)nicotinamide] | 0.202 | > 0.1 |
